From US8258135B2, “Quinolizidinone M1 receptor positive allosteric modulators” (Merck Sharp & Dohme Corp., priority 2007, dated 2012)
pEC50: −log10 of the molar value.

target: T1, acetylcholine muscarinic M1 receptor (Homo sapiens, UniProt P11229); assay: muscarinic FLIPR assay: intracellular calcium in CHOnfat/hM1 cells, potentiation of EC20 acetylcholine; assay type: cell-based; conditions: not given
T1 construct: expressed in transfected cells; host or cells: CHOnfat (CHO cells, NFAT reporter background) expressing hM1
T1 sequence (P11229 1-460): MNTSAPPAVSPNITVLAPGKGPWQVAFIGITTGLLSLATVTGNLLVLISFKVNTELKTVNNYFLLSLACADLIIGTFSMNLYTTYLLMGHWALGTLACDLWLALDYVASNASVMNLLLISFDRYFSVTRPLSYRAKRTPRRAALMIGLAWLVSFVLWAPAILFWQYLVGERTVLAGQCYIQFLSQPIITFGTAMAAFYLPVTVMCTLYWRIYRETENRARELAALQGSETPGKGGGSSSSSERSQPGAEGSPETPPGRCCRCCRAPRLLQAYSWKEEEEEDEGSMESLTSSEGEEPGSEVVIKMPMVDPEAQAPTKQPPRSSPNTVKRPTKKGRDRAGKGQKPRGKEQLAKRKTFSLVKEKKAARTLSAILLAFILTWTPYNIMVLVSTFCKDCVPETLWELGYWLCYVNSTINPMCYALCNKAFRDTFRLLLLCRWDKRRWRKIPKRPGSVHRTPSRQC
Method: The assay studies the effect of one or several concentrations of test compounds on basal or acetylcholine-stimulated Ca^2+ levels using FLIPR.
Compounds are prepared and subjected to a preincubation period of 4 min. Thereafter, a single EC20 concentration of acetylcholine is added to each well (3 nM final). The intracellular Ca^2+ level of each sample is measured and compared to an acetylcholine control to determine any modulatory activity.
Cells: CHOnfat/hM1, hM2, hM3 or hM4 cells are plated 24 hr before the assay at a density of 18,000 cells/well (100 μL) in a 384 well plate. CHOnfat/hM1 and CHOnfat/hM3 Growth Medium: 90% DMEM (Hi Glucose); 10% HI FBS; 2 mM L-glutamine; 0.1 mM NEAA; Pen-Strep; and 1 mg/ml Geneticin, are added. For M2Gqi5CHOnfat and M4Gqi5CHOnfat cells, an additional 600 ug/ml hygromycin is added.
Equipment: 384 well plate, 120 μL addition plate; 96-well Whatman 2 ml Uniplate Incubator, 37° C., 5% CO2; Skatron EMBLA-384 Plate Washer; Multimek Pipetting System; Genesis Freedom 200 System; Mosquito System; Temo Nanoliter Pipetting System; and FLIPR^384 Fluorometric Imaging Plate Reader System are used.
Buffers. Assay Buffer: Hanks Balanced Salt Solution, with 20 mM Hepes, 2.5 mM Probenecid (Sigma P-8761) first dissolved in 1N NaOH, 1% Bovine Serum Albumin (Sigma A-9647). Dye Loading Buffer: Assay Buffer plus 1% Fetal Bovine Serum and Fluo-4AM/Pluronic Acid Mixture. 2 mM Fluo-4AM ester stock in DMSO (Molecular Probes F-14202) Concentration of 2 uM in buffer for a final concentration of 1 μM in Assay. 20% Pluronic Acid Solution stock, with concentration of 0.04% in Buffer, 0.02% in Assay.
65 μL of 2 mM Fluo-4AM are mixed with 130 μL of 20% Pluronic Acid. The resulting solution and 650 μL FBS is added to the assay buffer for a total volume of 65 mL. Positive Controls: 4-Br-A23187: 10 mM in DMSO; final concentration 10 μM. Acetylcholine: 10 mM in water, working stock at both 20 uM and 30 uM in assay buffer, final concentration of 10 μM. This is used to check the maximum stimulation of the CHOK1/hM1 cells. 20 uM (2×) acetylcholine is added in the preincubation part of the assay, and the 30 uM (3×) stock is added in the second part. (EC20)Acetylcholine: 10 mM in water, working stock of 9 nM (3×), and final concentration in assay is 3 nM. This is used after the preincubation with test compounds. Addition of the EC20) Acetylcholine to each well with a test compound will ascertain any modulator activity. 24 wells contain 3 nM Acetylcholine alone as a control.
Determining Activity of Putative Compounds:
Screening Plate Compounds are titrated in 96-well plates (columns 2-11), 100% DMSO, started at a concentration of 15 mM (150× stock concentration), and 3-fold serial dilutions using Genesis Freedom200 System. Four 96-well plates are combined into a 384-well plate using Mosquito Nanoliter Pipetting System by transferring 1 ul of serial diluted compounds to each well, and 1 mM acetylcholine (100× stock concentration) were added as a control. Using Temo, 49 μl assay buffer is added to each well of the 384-well plate right before assay.
In a 96-well Whatman 2 ml Uniplate, 9 nM Acetylcholine (3×) is pipetted into wells corresponding to the screening compounds, and into control wells. The 30 uM acetylcholine control (3×) is added into control wells, and the 3× agonist plate is transferred into a 384 well plate.
Cells are washed three times with 100 μL of buffer, leaving 30 μL of buffer in each well. Using Multimek, 30 μL of Dye Loading Buffer is added into each well and incubated at […], 5% CO2 for up to one hr.
After 60 min, the cells are washed three times with 100 μL of buffer, leaving 30 μL of buffer in each well. The cell plate, screening plate, and agonist addition plates are placed on the platform in the FLIPR and the door closed. A signal test to check background fluorescence and basal fluorescence signal is performed. Laser intensity is adjusted if necessary. […]

Compound | pEC50
N#CC1(c2ccccc2)CCN(Cc2cc(C(=O)O)c(=O)n3ccccc23)CC1 [Example 3] | 6.82
COc1ccccc1C1(C#N)CCN(Cc2cc(C(=O)O)c(=O)n3ccccc23)CC1 [Example 10] | 6.79
Cc1cccc(C2(C#N)CCN(Cc3cc(C(=O)O)c(=O)n4ccccc34)CC2)c1 [Example 8] | 7.06
N#CC1(c2cccc(F)c2)CCN(Cc2cc(C(=O)O)c(=O)n3ccccc23)CC1 [Example 46, 1-{[4-cyano-4-(3-fluorophenyl)piperidin-1-yl]methyl}-4-oxo-4H-quinolizine-3-carboxylic acid] | 6.25
N#CC1(c2cccc(Cl)n2)CCN(Cc2cc(C(=O)O)c(=O)n3ccccc23)CC1 [Example 28] | 6.88
N#CC1(c2nc3ccccc3s2)CCN(Cc2cc(C(=O)O)c(=O)n3ccccc23)CC1 [Example 45] | 7.04
N#CC1(c2cccnc2)CCN(Cc2cc(C(=O)O)c(=O)n3ccccc23)CC1 [Example 47, 1-[(4-cyano-4-pyridin-3-ylpiperidin-1-yl)methyl]-4-oxo-4H-quinolizine-3-carboxylic acid] | 6.44

same assay, conditions: CHOnfat/hM1 cells, FLIPR, 4 min preincubation, then EC20 acetylcholine (3 nM final); read-out: IP Value (inflection point)

Compound | pEC50
C=Cc1cccnc1C1(C#N)CCN(Cc2cc(C(=O)O)c(=O)n3ccccc23)CC1 [Example 49, 1-{[4-cyano-4-(3-vinylpyridin-2-yl)piperidin-1-yl]methyl}-4-oxo-4H-quinolizine-3-carboxylic acid] | 5.20
C=Cc1ccc(C2(C#N)CCN(Cc3cc(C(=O)O)c(=O)n4ccccc34)CC2)nc1 [Example 50, 1-{[4-cyano-4-(5-vinylpyridin-2-yl)piperidine-1-yl]methyl}-4-oxo-4H-quinolizine-3-carboxylic acid] | 6.39
N#CC1(c2cnc3ccccc3n2)CCN(Cc2cc(C(=O)O)c(=O)n3ccccc23)CC1 [Example 42] | 5.91
N#CC1(c2ncccc2Br)CCN(Cc2cc(C(=O)O)c(=O)n3ccccc23)CC1 [Example 48, 1-{[4-(3-bromopyridin-2-yl)-4-cyanopiperidin-1-yl]methyl}-4-oxo-4H-quinolizine-3-carboxylic acid] | 5.47
